Among the data in ChEMBL document CHEMBL5150017, “Mechanism of Action and Structure-Activity Relationship of α-Conotoxin Mr1.1 at the Human α9α10 Nicotinic Acetylcholine Receptor” (J Med Chem, 2022) are inhibition values, retold here.

Experiment [1] deals with T1, Neuronal acetylcholine receptor; alpha9/alpha10 (Homo sapiens) (UniProt Q9UGM1+Q9GZZ6). Put plainly: Antagonist activity at human alpha9alpha10 nAChR expressed in Xenopus laevis oocytes assessed as inhibition of ACh-induced current amplitude at -80 mV holding potential at 10 uM by two-electrode voltage clamp method. The format is cell-based. To be noted: Oocyte.
For experiment [2], the target named is T1, Neuronal acetylcholine receptor; alpha9/alpha10 (Homo sapiens). Put plainly: Antagonist activity at human alpha9alpha10 nAChR expressed in Xenopus laevis oocytes assessed as inhibition of ACh-induced current amplitude at -80 mV holding potential at 1 uM by two-electrode voltage clamp method. The format is cell-based. To be noted: Oocyte.

Active and inactive are the calls of the source. The calls are words filed in the database; no cut-off is given here. Positions of bridges follow the written chain, without caps; N, C: chain ends. Residues, ends and D or L forms follow the SMILES beside them.

The term inhibition denotes the relative decrease from the control value, in per cent. On to `CC[C@H](C)[C@@H]1NC(=O)[C@H](CC(=O)O)NC(=O)[C@@H]2CCCN2C(=O)[C@H](CC(N)=O)NC(=O)[C@H](CC(N)=O)NC(=O)[C@H](C(C)C)NC(=O)[C@H](CO)NC(=O)[C@@H]2CSSC[C@H](NC(=O)CN)C(=O)N[C@@H](CSSC[C@@H](C(N)=O)NC1=O)C(=O)N[C@@H](C)C(=O)N[C@@H](Cc1cnc[nH]1)C(=O)N1CCC[C@H]1C(=O)N[C@@H](C)C(=O)N2` (H-GCCAHPACSVNNPDIC-NH2; disulfide 2-8, 3-16), for which the inhibition entry in experiment [1] (filed as antagonist) is “Active”.
Consider `CC[C@H](C)[C@@H]1NC(=O)[C@H](CC(=O)O)NC(=O)[C@@H]2CCCN2C(=O)[C@H](CC(N)=O)NC(=O)[C@H](CC(N)=O)NC(=O)[C@H](C(C)C)NC(=O)[C@H](CO)NC(=O)[C@@H]2CSSC[C@H](NC(=O)CN)C(=O)N[C@@H](CSSC[C@@H](C(N)=O)NC1=O)C(=O)N[C@@H](CO)C(=O)N[C@@H](C)C(=O)N1CCC[C@H]1C(=O)N[C@@H](C)C(=O)N2` (H-GCCSAPACSVNNPDIC-NH2; disulfide 2-8, 3-16), for which, in experiment [1], the inhibition was found to be 20%.
On to `CC[C@H](C)[C@@H]1NC(=O)[C@H](CC(=O)O)NC(=O)[C@@H]2CCCN2C(=O)[C@H](CC(N)=O)NC(=O)[C@H](CC(N)=O)NC(=O)[C@H](C(C)C)NC(=O)[C@H](C)NC(=O)[C@@H]2CSSC[C@H](NC(=O)CN)C(=O)N[C@@H](CSSC[C@@H](C(N)=O)NC1=O)C(=O)N[C@@H](CO)C(=O)N[C@@H](Cc1cnc[nH]1)C(=O)N1CCC[C@H]1C(=O)N[C@@H](C)C(=O)N2` (H-GCCSHPACAVNNPDIC-NH2; disulfide 2-8, 3-16), for which, in experiment [1] (filed as antagonist), the inhibition result is “Active”.
Regarding `CC[C@H](C)[C@@H]1NC(=O)[C@H](CC(=O)O)NC(=O)[C@@H]2CCCN2C(=O)[C@H](Cc2cnc[nH]2)NC(=O)[C@H](CC(N)=O)NC(=O)[C@H](C(C)C)NC(=O)[C@H](CO)NC(=O)[C@@H]2CSSC[C@H](NC(=O)CN)C(=O)N[C@@H](CSSC[C@@H](C(N)=O)NC1=O)C(=O)N[C@@H](CO)C(=O)N[C@@H](Cc1cnc[nH]1)C(=O)N1CCC[C@H]1C(=O)N[C@@H](C)C(=O)N2` (H-GCCSHPACSVNHPDIC-NH2; disulfide 2-8, 3-16), the inhibition in experiment [2] stood at 20%; in experiment [2] (filed as antagonist) it was 40%.
